These results are taken from patent US20190281845A1, “EDIBLE BIO-ACTIVE FILMS BASED ON CHITOSAN OR A MIXTURE OF QUINOA PROTEIN-CHITOSAN; SHEETS HAVING CHITOSAN-TRIPOLYPHOSPHATE-THYMOL NANOPARTICLES; PRODUCTION METHOD; BIO-PACKAGING COMPRISING SAME; AND USE THEREOF IN FRESH FRUIT WITH A LOW PH” (Universidad de Chile, priority 2016, published 2019).

The subject of one assay is E. aerogenes. The assay is described as follows: Minimum inhibitory concentration in liquid culture (serial dilutions, turbidity). It is filed as cell-based, Enterobacter aerogenes ATCC 13048. Particulars: 24 h. The method, then: (§1) To evaluate the antimicrobial capacity of the ink prepared from the NQoT dispersion, the minimum concentration that is able to inhibit the visible development of the bacterial strains S. aureus; E. coli; P. aeruginosa; S. typhimurium; E. aerogenes and L. innocua in a liquid culture medium (trypticase soy broth), after 24 h incubation, was determined. Bacterial strains were obtained from an isolated colony on a selective and differential agar plate for each genus, and were inoculated in nutritious broth for 24 h at 37° C. with stirring until obtaining a saturated culture. Then, the desired concentration of microorganisms was determined, in comparison with the standard of McFarland 0.5, and the corresponding dilutions were made in order to reach a concentration of 1×10^5 CFU/ml (colony-forming units/ml). To each culture tube, agents in serial dilutions were added, and incubated at 37° C. for 24 h; then, the lowest concentration of the mixture capable of inhibiting bacterial growth, given by absence of turbidity in the culture medium, was determined. The solutions used to generate the Nps and nanoparticles without T in their formulation (NQo) were used as controls. […]

The test system of another assay is B. cinerea. The assay is described as follows: Minimum inhibitory concentration against the fungus. It is filed as cell-based, Botrytis cinerea wt.
A further assay relates to S. typhimurium. As to the kind of experiment: Minimum inhibitory concentration in liquid culture (serial dilutions, turbidity). It is filed as cell-based, Salmonella serovar Typhimurium ATCC 14028. Particulars: S. Tiphymurium; 24 h. The protocol:
as §1

For assay [1], the system named is E. coli. Particulars: Guarda et al., 2011; cited from earlier work.
For assay [2], the system named is E. coli. The assay is described as follows: Minimum inhibitory concentration in liquid culture (serial dilutions, turbidity). It is filed as cell-based, Escherichia coli ATCC 25922. Particulars: 24 h. The method, then:
as §1

The test system of assay [3] is S. aureus. The description is as above. Particulars: 24 h. Type of assay: cell-based, Staphylococcus aureus ATCC 25923. The method, then:
as §1

A further assay concerns S. cereviciae. Particulars: Guarda et al., 2011; cited from earlier work.
Assay [4] concerns S. aureus. The note with it: Guarda et al., 2011; cited from earlier work.
The test system of the next assay is Listeria innocua. Particulars: Guarda et al., 2011; cited from earlier work.
Another assay deals with A. niger. Particulars: Guarda et al., 2011; cited from earlier work.
In another assay the test system is P. aeruginosa. As to the kind of experiment: Minimum inhibitory concentration in liquid culture (serial dilutions, turbidity). Particulars: Ps. aeruginosa; 24 h. It is filed as cell-based, Pseudomonas aeruginosa ATCC 27853. The protocol: as §1
The subject of the next assay is L. innocua. The description is as above. It is filed as cell-based, Listeria innocua ATCC 33090. Particulars: 24 h. The protocol:
as §1

In the next assay the test system is B. cinerea mycelium. The assay is described as follows: Inhibition of Botrytis cinerea mycelium (radial growth on agar). Particulars: for Radial mycelial growth area: 6 days at 25° C., untreated 8.5 cm^2. Type of assay: cell-based. The protocol: The antifungal activity of the NQoT dispersion was evaluated by inhibiting the radial development in the fungus mycelial plate, described by Yildirim et al., (2007). For that purpose, a portion of mycelium was sterilely taken, using a punch, from a strain previously cultivated for 5 days at 25° C., which was placed in the center of a potato dextrose agar plate mixed with dilutions of the NQoT dispersion until obtaining in the agar concentrations of 0.44 mg/ml (dispersion diluted to 10% v/v), 1.1 mg/ml (dispersion diluted to 25% v/v) and 2.2 mg/ml (dispersion diluted to 50% v/v). These plates were incubated for 6 days at 25° C., being evaluated every 24 h. The antifungal activity was determined through the mycelium propagation area of the plates containing NQoT, and were compared with agar plates containing T solutions, mixture of QoLMW-T, and the NQo dispersion in the same dilutions, and a culture of the fungus seeded in a plate without treatment, whose propagation on the surface of the plate (8.5 cm2) is equivalent to a 100% development, which was used as a parameter of growth comparison.
On the other hand, the antifungal capacity of the NQoTs confronted to the vegetative form of Botrytis cinerea was tested, wherein the growth inhibition of this fungus' mycelium was assessed, adding diluted concentrations to the culture medium of the NQoT dispersion. The dilutions tested corresponded to 10%, 25% and 50% v/v, and were compared to T's solutions, QoLMW-T mixture, and NQo dispersion in the same dilutions.
It was observed, when the culture medium lacked the solutions or dispersions to be tested (viability control), that the fungus spread over the surface of the plate (8.5 cm^2), equivalent to 100% growth, which was used as a growth comparison parameter.

Where [5] appears, read: agent diluted to 10% v/v in culture medium.
The mark [6] stands for this setting: agent diluted to 25% v/v in culture medium.

Take `Cc1ccc(C(C)C)c(O)c1` [thymol]: the Minimum inhibitory concentration is recorded as 0.250 gL^−1 with E. aerogenes; 0.550 gL^−1 in the assay with B. cinerea; 0.250 gL^−1 in the assay with S. typhimurium; 0.250 gL^−1 in the assay on E. coli [2]; 0.275 gL^−1 in the assay with S. aureus [3]; 0.225 gL^−1 in the assay with P. aeruginosa. In the assay on L. innocua, this compound showed a Minimum inhibitory concentration of 0.275 gL^−1. The “Minimum inhibitory concentration (MIC)” value was 250 ppm in the assay with E. coli [1]; 125 ppm in the assay with S. cereviciae; 250 ppm in the assay with S. aureus [4]; 250 ppm in the assay on Listeria innocua; 250 ppm with A. niger. Also, the “Inhibition of mycelial growth versus viability control” value is reported as 4.7% in the assay with B. cinerea mycelium (setting [5]) and 20% in the assay with B. cinerea mycelium (setting [6]). The “Radial mycelial growth area” value in the assay on B. cinerea mycelium (setting [5]) amounted to 8.1±0.1 cm^2; in the assay on B. cinerea mycelium (setting [6]) it was 6.8±0.8 cm^2.
